Experimental data reported in paper PMC5224920, “Assessing the mechanism and therapeutic potential of modulators of the human Mediator complex-associated protein kinases” (eLife, 2016).

System: 12 single or co-culture in vitro tissue models of primary cells
Assay: Culture/co-culture cell model panel, extracellular biomarkers (DiscoveRx); as to CCL2/MCP-1: reference of the scale not given here; as to CD141/Thrombomodulin: reference of the scale not given here; as to CD142/Tissue Factor: reference of the scale not given here; as to CD38: reference of the scale not given here; as to CD40: reference of the scale not given here; as to CD69: reference of the scale not given here; as to CXCL8/IL-8: reference of the scale not given here; as to CXCL9/MIG: reference of the scale not given here; as to IL-1alpha: reference of the scale not given here; as to M-CSF: reference of the scale not given here; as to PBMC Cytotoxicity: reference of the scale not given here; as to SRB: reference of the scale not given here; as to sPGE2: reference of the scale not given here; as to sTNF-alpha: reference of the scale not given here
Format: cell-based, human
[1] = HDF3CGF stimulated fibroblasts, 1.00E3 nM
[2] = HDF3CGF stimulated fibroblasts, 1.00E4 nM
[3] = HPNo Huvec+PBMC unstimulated, 1.00E0 nM
[4] = HPNo Huvec+PBMC unstimulated, 1.00E1 nM
[5] = HPNo Huvec+PBMC unstimulated, 1.00E2 nM
[6] = HPNo Huvec+PBMC unstimulated, 1.00E3 nM
[7] = HPNo Huvec+PBMC unstimulated, 1.00E4 nM

Structure (SMILES): Cn1ncc2cc(-c3cnc(N)c(Cl)c3N3CCC4(CCNC4=O)CC3)ccc21 [CMPD 3]
- EGFR [1]: -0.071
- M-CSF [1]: -0.083
- MMP-1 [1]: 0.021
- PAI-I [1]: -0.046
- Proliferation_72hr [1]: -0.287
- SRB [1]: -0.024
- TIMP-1 [1]: -0.058
- TIMP-2 [1]: 0.170
- CCL2/MCP-1 [2]: -0.120
- CD54/ICAM-1 [2]: -0.048
- CD106/VCAM-1 [2]: 0.030
- CXCL8/IL-8 [2]: -0.092
- CXCL9/MIG [2]: -0.077
- CXCL10/IP-10 [2]: 0.009
- CXCL11/I-TAC [2]: -0.045
- Collagen I [2]: 0.097
- Collagen III [2]: 0.0018
- EGFR [2]: 0.023
- M-CSF [2]: -0.150
- MMP-1 [2]: 0.056
- PAI-I [2]: -0.210
- Proliferation_72hr [2]: -0.515
- SRB [2]: -0.209
- TIMP-1 [2]: -0.045
- TIMP-2 [2]: 0.276
- CCL2/MCP-1 [3]: 0.009
- CD38 [3]: 0.004
- CD40 [3]: -0.028
- CD106/VCAM-1 [3]: 0.042
- CD141/Thrombomodulin [3]: 0.010
- CD142/Tissue Factor [3]: 0.089
- CCL2/MCP-1 [4]: 0.017
- CD38 [4]: -0.049
- CD40 [4]: -0.059
- CD106/VCAM-1 [4]: 0.134
- CD141/Thrombomodulin [4]: -0.016
- CD142/Tissue Factor [4]: 0.039
- CCL2/MCP-1 [5]: 0.001
- CD38 [5]: -0.011
- CD40 [5]: -0.067
- CD106/VCAM-1 [5]: 0.206
- CD141/Thrombomodulin [5]: 0.008
- CD142/Tissue Factor [5]: 0.039
- CCL2/MCP-1 [6]: -0.049
- CD38 [6]: -0.041
- CD40 [6]: -0.024
- CD106/VCAM-1 [6]: 0.098
- CD141/Thrombomodulin [6]: 0.007
- CD142/Tissue Factor [6]: 0.007
- CCL2/MCP-1 [7]: -0.004
- CD38 [7]: -0.070
- CD40 [7]: -0.022
- CD106/VCAM-1 [7]: 0.069
- CD141/Thrombomodulin [7]: 0.032
- CD142/Tissue Factor [7]: -0.024
- CD69 (HPNo, 1.00E0 nM): -0.011
- CXCL8/IL-8 (HPNo, 1.00E0 nM): 0.034
- CXCL9/MIG (HPNo, 1.00E0 nM): 0.060
- M-CSF (HPNo, 1.00E0 nM): 0.037
- SRB (HPNo, 1.00E0 nM): -0.058
- sPGE2 (HPNo, 1.00E0 nM): 0.025
- sTNF-alpha (HPNo, 1.00E0 nM): 0.138
- CD69 (HPNo, 1.00E1 nM): -0.011
- CXCL8/IL-8 (HPNo, 1.00E1 nM): 0.00458
- CXCL9/MIG (HPNo, 1.00E1 nM): 0.092
- M-CSF (HPNo, 1.00E1 nM): 0.011
- SRB (HPNo, 1.00E1 nM): -0.00131
- sPGE2 (HPNo, 1.00E1 nM): 0.022
- sTNF-alpha (HPNo, 1.00E1 nM): 0.068
- CD69 (HPNo, 1.00E2 nM): 0.017
- CXCL8/IL-8 (HPNo, 1.00E2 nM): -0.00647
- CXCL9/MIG (HPNo, 1.00E2 nM): 0.045
- M-CSF (HPNo, 1.00E2 nM): -0.043
- SRB (HPNo, 1.00E2 nM): 0.006
- sPGE2 (HPNo, 1.00E2 nM): 0.139
- sTNF-alpha (HPNo, 1.00E2 nM): 0.492
- CD69 (HPNo, 1.00E3 nM): -0.017
- CXCL8/IL-8 (HPNo, 1.00E3 nM): -0.012
- CXCL9/MIG (HPNo, 1.00E3 nM): 0.014
- M-CSF (HPNo, 1.00E3 nM): -0.056
- SRB (HPNo, 1.00E3 nM): 0.008
- sPGE2 (HPNo, 1.00E3 nM): 0.056
- sTNF-alpha (HPNo, 1.00E3 nM): -0.00633
- CD69 (HPNo, 1.00E4 nM): 0.004
- CXCL8/IL-8 (HPNo, 1.00E4 nM): -0.002
- CXCL9/MIG (HPNo, 1.00E4 nM): -0.052
- M-CSF (HPNo, 1.00E4 nM): -0.079
- SRB (HPNo, 1.00E4 nM): -0.058
- sPGE2 (HPNo, 1.00E4 nM): 0.016
- sTNF-alpha (HPNo, 1.00E4 nM): 0.025
- CCL2/MCP-1 (LPS Huvec+PBMC, 1.00E0 nM): 0.009
- CD40 (LPS Huvec+PBMC, 1.00E0 nM): -0.011
- CD69 (LPS Huvec+PBMC, 1.00E0 nM): 0.028
- CD106/VCAM-1 (LPS Huvec+PBMC, 1.00E0 nM): 0.028
- CD141/Thrombomodulin (LPS Huvec+PBMC, 1.00E0 nM): 0.019
- CD142/Tissue Factor (LPS Huvec+PBMC, 1.00E0 nM): 0.057
- CXCL8/IL-8 (LPS Huvec+PBMC, 1.00E0 nM): 0.020
- IL-1alpha (LPS Huvec+PBMC, 1.00E0 nM): 0.064
- M-CSF (LPS Huvec+PBMC, 1.00E0 nM): 0.051
- SRB (LPS Huvec+PBMC, 1.00E0 nM): -0.018
- sPGE2 (LPS Huvec+PBMC, 1.00E0 nM): 0.033
- sTNF-alpha (LPS Huvec+PBMC, 1.00E0 nM): 0.017
- CCL2/MCP-1 (LPS Huvec+PBMC, 1.00E1 nM): -0.00212
- CD40 (LPS Huvec+PBMC, 1.00E1 nM): -0.078
- CD69 (LPS Huvec+PBMC, 1.00E1 nM): -0.00157
- CD106/VCAM-1 (LPS Huvec+PBMC, 1.00E1 nM): 0.056
- CD141/Thrombomodulin (LPS Huvec+PBMC, 1.00E1 nM): 0.042
- CD142/Tissue Factor (LPS Huvec+PBMC, 1.00E1 nM): 0.050
- CXCL8/IL-8 (LPS Huvec+PBMC, 1.00E1 nM): -0.028
- IL-1alpha (LPS Huvec+PBMC, 1.00E1 nM): -0.012
- M-CSF (LPS Huvec+PBMC, 1.00E1 nM): -0.018
- SRB (LPS Huvec+PBMC, 1.00E1 nM): -0.053
- sPGE2 (LPS Huvec+PBMC, 1.00E1 nM): 0.128
- sTNF-alpha (LPS Huvec+PBMC, 1.00E1 nM): 0.024
- CCL2/MCP-1 (LPS Huvec+PBMC, 1.00E2 nM): -0.069
- CD40 (LPS Huvec+PBMC, 1.00E2 nM): -0.092
- CD69 (LPS Huvec+PBMC, 1.00E2 nM): 0.048
- CD106/VCAM-1 (LPS Huvec+PBMC, 1.00E2 nM): 0.047
- CD141/Thrombomodulin (LPS Huvec+PBMC, 1.00E2 nM): 0.046
- CD142/Tissue Factor (LPS Huvec+PBMC, 1.00E2 nM): 0.071
- CXCL8/IL-8 (LPS Huvec+PBMC, 1.00E2 nM): -0.091
- IL-1alpha (LPS Huvec+PBMC, 1.00E2 nM): -0.007
- M-CSF (LPS Huvec+PBMC, 1.00E2 nM): -0.020
- SRB (LPS Huvec+PBMC, 1.00E2 nM): -0.076
- sPGE2 (LPS Huvec+PBMC, 1.00E2 nM): 0.096
- sTNF-alpha (LPS Huvec+PBMC, 1.00E2 nM): 0.028
- CCL2/MCP-1 (LPS Huvec+PBMC, 1.00E3 nM): -0.112
- CD40 (LPS Huvec+PBMC, 1.00E3 nM): -0.089
- CD69 (LPS Huvec+PBMC, 1.00E3 nM): 0.015
- CD106/VCAM-1 (LPS Huvec+PBMC, 1.00E3 nM): 0.022
- CD141/Thrombomodulin (LPS Huvec+PBMC, 1.00E3 nM): 0.052
- CD142/Tissue Factor (LPS Huvec+PBMC, 1.00E3 nM): 0.071
- CXCL8/IL-8 (LPS Huvec+PBMC, 1.00E3 nM): -0.169
- IL-1alpha (LPS Huvec+PBMC, 1.00E3 nM): -0.064
- M-CSF (LPS Huvec+PBMC, 1.00E3 nM): -0.008
- SRB (LPS Huvec+PBMC, 1.00E3 nM): -0.082
- sPGE2 (LPS Huvec+PBMC, 1.00E3 nM): 0.040
- sTNF-alpha (LPS Huvec+PBMC, 1.00E3 nM): -0.030
- CCL2/MCP-1 (LPS Huvec+PBMC, 1.00E4 nM): -0.187
- CD40 (LPS Huvec+PBMC, 1.00E4 nM): -0.133
- CD69 (LPS Huvec+PBMC, 1.00E4 nM): -0.043
- CD106/VCAM-1 (LPS Huvec+PBMC, 1.00E4 nM): 0.00362
- CD141/Thrombomodulin (LPS Huvec+PBMC, 1.00E4 nM): 0.038
- CD142/Tissue Factor (LPS Huvec+PBMC, 1.00E4 nM): 0.121
- CXCL8/IL-8 (LPS Huvec+PBMC, 1.00E4 nM): -0.222
- IL-1alpha (LPS Huvec+PBMC, 1.00E4 nM): -0.226
- M-CSF (LPS Huvec+PBMC, 1.00E4 nM): -0.022
- SRB (LPS Huvec+PBMC, 1.00E4 nM): -0.142
- sPGE2 (LPS Huvec+PBMC, 1.00E4 nM): 0.008
- sTNF-alpha (LPS Huvec+PBMC, 1.00E4 nM): -0.328
- CCL2/MCP-1 (SAg, 1.00E0 nM): 0.030
- CD38 (SAg, 1.00E0 nM): 0.023
- CD40 (SAg, 1.00E0 nM): -0.041
- CD69 (SAg, 1.00E0 nM): 0.00162
- CXCL8/IL-8 (SAg, 1.00E0 nM): 0.064
- CXCL9/MIG (SAg, 1.00E0 nM): 0.013
- PBMC Cytotoxicity (SAg, 1.00E0 nM): 0.039
- Proliferation (SAg, 1.00E0 nM): 0.019
- SRB (SAg, 1.00E0 nM): -0.013
- CCL2/MCP-1 (SAg, 1.00E1 nM): -0.016
- CD38 (SAg, 1.00E1 nM): -0.043
- CD40 (SAg, 1.00E1 nM): -0.128
- CD69 (SAg, 1.00E1 nM): 0.037
- CXCL8/IL-8 (SAg, 1.00E1 nM): -0.047
- CXCL9/MIG (SAg, 1.00E1 nM): -0.015
- PBMC Cytotoxicity (SAg, 1.00E1 nM): 0.014
- Proliferation (SAg, 1.00E1 nM): 0.030
- SRB (SAg, 1.00E1 nM): -0.033
- CCL2/MCP-1 (SAg, 1.00E2 nM): -0.038
- CD38 (SAg, 1.00E2 nM): -0.050
- CD40 (SAg, 1.00E2 nM): -0.143
- CD69 (SAg, 1.00E2 nM): 0.053
- CXCL8/IL-8 (SAg, 1.00E2 nM): -0.167
- CXCL9/MIG (SAg, 1.00E2 nM): -0.040
- PBMC Cytotoxicity (SAg, 1.00E2 nM): 0.014
- Proliferation (SAg, 1.00E2 nM): 0.018
- SRB (SAg, 1.00E2 nM): -0.052
- CCL2/MCP-1 (SAg, 1.00E3 nM): -0.092
- CD38 (SAg, 1.00E3 nM): -0.050
- CD40 (SAg, 1.00E3 nM): -0.108
- CD69 (SAg, 1.00E3 nM): 0.059
- CXCL8/IL-8 (SAg, 1.00E3 nM): -0.271
- CXCL9/MIG (SAg, 1.00E3 nM): -0.072
- PBMC Cytotoxicity (SAg, 1.00E3 nM): -0.014
- Proliferation (SAg, 1.00E3 nM): 0.007
- SRB (SAg, 1.00E3 nM): -0.055
- CCL2/MCP-1 (SAg, 1.00E4 nM): -0.171
- CD38 (SAg, 1.00E4 nM): -0.109
- CD40 (SAg, 1.00E4 nM): -0.222
- CD69 (SAg, 1.00E4 nM): -0.076
- CXCL8/IL-8 (SAg, 1.00E4 nM): -0.221
- CXCL9/MIG (SAg, 1.00E4 nM): -0.086
- PBMC Cytotoxicity (SAg, 1.00E4 nM): -0.027
- Proliferation (SAg, 1.00E4 nM): -0.217
- SRB (SAg, 1.00E4 nM): -0.150
